US20020094524A1, “Compositions and methods for inhibiting HIV infection” (priority 2000, published 2002)

Tests used:
TNF-α = test: LPS-stimulated TNF-α production in MDM (ELISA); format: cell-based, human; details: 10^−9 to 10^−7M; LPS 1 ng/ml; 24 h; concentration-dependent (FIG. 11)
Experimental: (§1) In order to determine the role of CP-96,345 in the regulation of cytokine secretion, 7-day-cultured MDM were incubated with or without CP-96,345 (10^−9 to 10^−7M) and/or LPS (1 ng/ml) for 24 h. The culture supernatants were collected to determine TNF-α and IL-6 levels by ELISA. The ELISA kits were purchased from Endogen, Inc. (Woburn, Mass.).

IL-6 = IL-6 production in LPS-treated MDM (ELISA); format: cell-based, human; details: 10^−9 to 10^−7M; LPS 1 ng/ml; 24 h (FIG. 11)
Experimental: as §1

HIV Bal strain = test: HIV-induced syncytia formation in MDM; format: cell-based; details: 10^−7M; 12 days after infection (FIG. 2)
Experimental: Syncytia formation: To study the effect of neuropeptide antagonists on HIV-induced syncytia formation in MDM, 7-day-cultured macrophages were incubated in the presence or absence of CP-96,345 (10^−7M) for 2 h and then infected with HIV Bal strain. MDM which were neither incubated with CP-96,345 nor infected with HIV were used as a cell culture control. The morphology of HIV-induced syncytia formation was observed and photographed by a light microscopy (×400) 12 days after HIV infection.

HIV gag mRNA = HIV gag mRNA by RT-PCR / real time RT-PCR in infected MDM; format: cell-based
Experimental: HIV Infection: After 2 h incubation with or without the reagents described above, the cells were infected with equal amounts of cell-free HIV based on p24 antigen content (20 ng/10^6 cells) overnight, and then washed to remove unbound virus. Fresh media containing SP and/or CP-96,345 or anti-SP antibody were added to the MDM as described above. The culture media and the reagents were replaced twice weekly. The culture supernatants were harvested for HIV reverse transcriptase (RT) activity determinations. After HIV infection, the MDM were incubated for 8 to 12 days. At the termination of the experiments, cellular RNA was extracted for assessment of HIV gag gene expression using RT-PCR or real time RT-PCR assays.
Total RNA was isolated from human peripheral blood MDM (10^6 cells) using Tri-Reagent (Molecular Research Center, Cincinnati, Ohio) as we previously reported (16).
Reverse transcription: Total RNA (1 μg) was reverse transcribed using Reverse Transcription System (Promega, Madison, Wis.) with the specific primers (antisense) for HIV gag (5′-[…]-[…]-3′; SEQ ID NO: 1) (27) or CCR5 (5′-[…]-3′; SEQ ID NO: 2) (32) for 1 h at 42° C. RT reactions was terminated by incubating the reaction mixture at 99° C. for 5 min and then kept at 4° C. The resulting cDNA was used as a template for PCR amplification or real time PCR quantification. […]

SP mRNA = SP mRNA expression in MDM (real-time RT-PCR); format: cell-based, human; details: 4 hours; indicated concentration (FIG. 17)
Experimental: FIG. 17. A graph showing the effect of CP-96,345 on SP mRNA expression in MDM. The MDM were incubated with (+) or without (−) the NK-1R antagonist at the indicated concentration for 4 hours. The SP mRNA levels were determined by a real-time RT-PCR. The SP mRNA levels in the CP-96,345 treated MDM are expressed as a percentage of that in untreated MDM which are defined as 100%.
The effect of CP-96,345 on SP mRNA expression in MDM was also determined. The MDM were incubated with (+) or without (−) the NK-1R antagonist at the indicated concentration for 4 hours. The SP mRNA levels were determined by a real-time RT-PCR.

HIV LTR promoter = test: HIV LTR-driven CAT activity assay in U38 cells; format: cell-based
From the text: ACH-2 and U38 cell lines (25, 26) were obtained from the NIH AIDS Reagent Program. DNA extracted from ACH-2 cells was used as a positive standard for HIV DNA PCR as previously reported (27). The U38 cell line contains stably integrated, silent copies of the HIV LTR (long terminal repeat) promoter linked to a CAT (chloramphenicol acetyltransferase) gene and was used to study the effect of SP and/or CP-96,345 and R-113281 on the activation of HIV LTR promoter.
Chloramphenicol acetyltransferase (CAT) activity assay:U38 cells (2×10^6 cells) were incubated with different concentrations of SP and/or CP-96,345 or R-113281 for 48 h. Untreated U38 cells were used as a background control. Cellular proteins were extracted using 1× Reporter Lysis Bufffer (Promega Corp., Madison, Wis.). The lysates were incubated with a mixture containing 0.15 μCi of ^14C-labeled chloramphenicol (DuPont Inc., Boston, Mass.) and 200 μg/ml of n-Butyryl CoA (Promega Corp., Madison, Wis.) in a total volume of 125 μl at 37° C. for 3 h. The acetylated forms of chloramphenicol were extracted with xylene (Aldrich Chemical Company, Milwaukee, Wis.). CAT activity of each sample was quantified using a liquid-scintillation counter (Packard Instrument Company, Downers Grove, Ill.). The results were expressed as the ratio of CAT activity (CPM) of the SP and/or CP-96,345-treated or R-113281-treated U38 to that of the background control.

In the case of `COc1ccccc1CN[C@H]1C2CCN(CC2)[C@H]1C(c1ccccc1)c1ccccc1` [CP-96,345, 2S, 3S)-cis-2-(diphenylmethyl)-N-[(2-methoxyphenyl)-methyl]-1-azabicyclo[[2.2.2]octan-3-amine], the “LPS-stimulated TNF-α production in MDM” value (TNF-α) is reported as “attenuated”, the “IL-6 production in MDM” value (IL-6) is reported as “not affected” and the “HIV-induced giant syncytia formation in MDM” value (HIV Bal strain) is reported as “failed to develop the giant syncytia”. The “HIV gag mRNA expression (RT-PCR)” value (HIV gag mRNA; 10^−11 to 10^−7 M, 12 days after infection, concentration-dependent (FIG. 3 top panel)) was “potently inhibited”, the “HIV gag gene mRNA expression (real time RT-PCR copy numbers)” value (HIV gag mRNA; all three concentrations tested, 12 days after infection (FIG. 3)) was “significantly suppress” and the “SP mRNA expression in MDM” value (SP mRNA) was “significantly inhibited”. The “effect on SP activation of HIV LTR-driven CAT activity” value (HIV LTR promoter; SP 10^−8M, CP-96,345 10^−6M, 48 h (FIG. 7)) was “abrogated”.
For `COc1cc(C(=O)N2CCO[C@](CCN3CCC4(CC3)c3ccccc3C[S@+]4[O-])(c3ccc(Cl)c(Cl)c3)C2)cc(OC)c1OC.Cl` [R-113281], the “effect on SP activation of HIV LTR-driven CAT activity” value (HIV LTR promoter; SP (10^−8M), R-113281 10^−6M, 48 hours (FIG. 16)) was “abrogated”.
